In PubChem BioAssay AID1788 (Vanderbilt High Throughput Screening Facility, 2009):
Calls of active or inactive are those of the source. How the calls were made is not given here.

Legend:
Assay in all cases: PubChem AID 1788
Purinergic P2Y (rat) = conditions: MDS Pharma lead profiling panel, radioligand binding, at 10 µM, stronger effect = higher value
Dopamine D4.2 (human) = conditions: MDS Pharma lead profiling panel, radioligand binding, at 10 µM, stronger effect = higher value
[1] = target: D(3) dopamine receptor (Homo sapiens) (UniProt P35462); conditions: MDS Pharma lead profiling panel, radioligand binding; Dopamine D3 (human); at 10 µM; stronger effect = higher value
[2] = target: Mu-type opioid receptor (Homo sapiens) (UniProt P35372); conditions: MDS Pharma lead profiling panel, radioligand binding; Opiate m (OP3, MOP) (human); at 10 µM; stronger effect = higher value
Adrenergic a1A (rat) = conditions: MDS Pharma lead profiling panel, radioligand binding, at 10 µM, stronger effect = higher value
Glutamate Kainate (rat) = conditions: MDS Pharma lead profiling panel, radioligand binding, at 10 µM, stronger effect = higher value
[3] = system: Calcium channel N-type (rat); conditions: MDS Pharma lead profiling panel, radioligand binding, at 10 µM, stronger effect = higher value
Histamine H3 (human) = conditions: MDS Pharma lead profiling panel, radioligand binding, at 10 µM, stronger effect = higher value
Adenosine A3 (human) = conditions: MDS Pharma lead profiling panel, radioligand binding, at 10 µM, stronger effect = higher value
Histamine H1 (human) = conditions: MDS Pharma lead profiling panel, radioligand binding, at 10 µM, stronger effect = higher value
[4] = system: Androgen (testosterone) AR (rat); conditions: MDS Pharma lead profiling panel, radioligand binding, at 10 µM, stronger effect = higher value
[5] = system: Epidermal Growth Factor (EGF) (human); conditions: MDS Pharma lead profiling panel, radioligand binding, at 10 µM, stronger effect = higher value
Adenosine A1 (human) = conditions: MDS Pharma lead profiling panel, radioligand binding, at 10 µM, stronger effect = higher value
[6] = target: Muscarinic acetylcholine receptor M1 (Homo sapiens) (UniProt P11229); conditions: MDS Pharma lead profiling panel, radioligand binding, at 10 µM, stronger effect = higher value
[7] = target: Delta-type opioid receptor (Homo sapiens) (UniProt P41143); conditions: MDS Pharma lead profiling panel, radioligand binding; Opiate d (OP1, DOP) (human); at 10 µM; stronger effect = higher value
Prostanoid EP4 (human) = conditions: MDS Pharma lead profiling panel, radioligand binding, at 10 µM, stronger effect = higher value
[8] = target: Muscarinic acetylcholine receptor M3 (Homo sapiens) (UniProt P20309); conditions: MDS Pharma lead profiling panel, radioligand binding, at 10 µM, stronger effect = higher value
Sigma s1 (human) = conditions: MDS Pharma lead profiling panel, radioligand binding, at 10 µM, stronger effect = higher value
[9] = system: Transporter, Serotonin (5-Hydroxytryptamine) (SERT) (human); conditions: MDS Pharma lead profiling panel, radioligand binding, at 10 µM, stronger effect = higher value
[10] = system: Calcium channel L-type (rat); conditions: MDS Pharma lead profiling panel, radioligand binding, dihydropyridine site, at 10 µM, stronger effect = higher value
Adrenergic a1B (rat) = conditions: MDS Pharma lead profiling panel, radioligand binding, at 10 µM, stronger effect = higher value
[11] = system: G protein-coupled receptor GPR103 (human); conditions: MDS Pharma lead profiling panel, radioligand binding, at 10 µM, stronger effect = higher value
Adenosine A2 (human) = conditions: MDS Pharma lead profiling panel, radioligand binding, at 10 µM, stronger effect = higher value
[12] = target: Estrogen receptor (Homo sapiens) (UniProt P03372); conditions: MDS Pharma lead profiling panel, radioligand binding; Estrogen ER a (human); at 10 µM; stronger effect = higher value
GABA B1A (human) = conditions: MDS Pharma lead profiling panel, radioligand binding, at 10 µM, stronger effect = higher value
Bradykinin B2 (human) = conditions: MDS Pharma lead profiling panel, radioligand binding, at 10 µM, stronger effect = higher value
[13] = system: Nicotinic Acetylcholine (human); conditions: MDS Pharma lead profiling panel, radioligand binding, at 10 µM, stronger effect = higher value
[14] = system: Transporter, Dopamine (DAT) (human); conditions: MDS Pharma lead profiling panel, radioligand binding, at 10 µM, stronger effect = higher value
Histamine H2 (human) = conditions: MDS Pharma lead profiling panel, radioligand binding, at 10 µM, stronger effect = higher value
Transporter, GABA (rat) = conditions: MDS Pharma lead profiling panel, radioligand binding, at 10 µM, stronger effect = higher value
[15] = system: Serotonin (5-Hydroxytryptamine) 5-HT3 (human); conditions: MDS Pharma lead profiling panel, radioligand binding, at 10 µM, stronger effect = higher value
[16] = target: Glucocorticoid receptor (Homo sapiens) (UniProt P04150); conditions: MDS Pharma lead profiling panel, radioligand binding, at 10 µM, stronger effect = higher value
Melatonin MT1 (human) = conditions: MDS Pharma lead profiling panel, radioligand binding, at 10 µM, stronger effect = higher value
[17] = target: D(1A) dopamine receptor (Homo sapiens) (UniProt P21728); conditions: MDS Pharma lead profiling panel, radioligand binding; Dopamine D1 (human); at 10 µM; stronger effect = higher value
Adrenergic b1 (human) = conditions: MDS Pharma lead profiling panel, radioligand binding, at 10 µM, stronger effect = higher value
Adrenergic a1D (human) = conditions: MDS Pharma lead profiling panel, radioligand binding, at 10 µM, stronger effect = higher value

D(3) dopamine receptor (Homo sapiens), sequence (P35462 whole entry, looked up): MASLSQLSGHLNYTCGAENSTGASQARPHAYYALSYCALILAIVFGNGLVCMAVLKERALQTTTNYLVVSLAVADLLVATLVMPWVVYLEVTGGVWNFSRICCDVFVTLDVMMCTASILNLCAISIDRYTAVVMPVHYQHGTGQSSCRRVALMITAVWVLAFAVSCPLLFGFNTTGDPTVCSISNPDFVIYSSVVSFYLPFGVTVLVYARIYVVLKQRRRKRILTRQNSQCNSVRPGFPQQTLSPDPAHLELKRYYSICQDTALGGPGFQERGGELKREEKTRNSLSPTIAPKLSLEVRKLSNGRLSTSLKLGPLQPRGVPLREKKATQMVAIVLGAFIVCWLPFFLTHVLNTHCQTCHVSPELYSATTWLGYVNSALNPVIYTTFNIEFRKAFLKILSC
Muscarinic acetylcholine receptor M3 (Homo sapiens), sequence (P20309 whole entry, looked up): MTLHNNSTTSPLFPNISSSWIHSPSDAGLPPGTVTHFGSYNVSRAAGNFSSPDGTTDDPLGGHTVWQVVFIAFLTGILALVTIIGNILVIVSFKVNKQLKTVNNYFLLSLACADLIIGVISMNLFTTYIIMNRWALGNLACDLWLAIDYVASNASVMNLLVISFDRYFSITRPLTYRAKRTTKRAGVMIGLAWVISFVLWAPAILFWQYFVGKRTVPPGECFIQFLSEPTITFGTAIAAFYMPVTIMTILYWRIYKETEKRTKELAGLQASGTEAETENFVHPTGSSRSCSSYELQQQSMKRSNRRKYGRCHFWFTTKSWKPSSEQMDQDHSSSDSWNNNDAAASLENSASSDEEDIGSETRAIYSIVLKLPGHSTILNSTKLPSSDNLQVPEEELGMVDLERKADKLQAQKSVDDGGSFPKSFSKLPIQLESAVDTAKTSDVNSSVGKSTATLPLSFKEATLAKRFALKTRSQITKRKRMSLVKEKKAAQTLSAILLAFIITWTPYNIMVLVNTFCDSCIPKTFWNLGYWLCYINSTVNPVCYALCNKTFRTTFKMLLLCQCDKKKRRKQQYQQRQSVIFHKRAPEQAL
Delta-type opioid receptor (Homo sapiens), sequence (P41143 whole entry, looked up): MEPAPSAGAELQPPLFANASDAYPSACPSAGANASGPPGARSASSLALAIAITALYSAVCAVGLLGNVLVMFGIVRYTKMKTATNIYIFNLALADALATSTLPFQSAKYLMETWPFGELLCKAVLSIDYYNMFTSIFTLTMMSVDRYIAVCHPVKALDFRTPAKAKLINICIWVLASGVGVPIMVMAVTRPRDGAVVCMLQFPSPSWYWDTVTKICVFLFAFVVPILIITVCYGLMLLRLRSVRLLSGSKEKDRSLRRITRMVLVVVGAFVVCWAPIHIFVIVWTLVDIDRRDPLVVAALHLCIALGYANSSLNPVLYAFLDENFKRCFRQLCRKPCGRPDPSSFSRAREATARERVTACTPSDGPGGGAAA
Estrogen receptor (Homo sapiens), sequence (P03372 whole entry, looked up): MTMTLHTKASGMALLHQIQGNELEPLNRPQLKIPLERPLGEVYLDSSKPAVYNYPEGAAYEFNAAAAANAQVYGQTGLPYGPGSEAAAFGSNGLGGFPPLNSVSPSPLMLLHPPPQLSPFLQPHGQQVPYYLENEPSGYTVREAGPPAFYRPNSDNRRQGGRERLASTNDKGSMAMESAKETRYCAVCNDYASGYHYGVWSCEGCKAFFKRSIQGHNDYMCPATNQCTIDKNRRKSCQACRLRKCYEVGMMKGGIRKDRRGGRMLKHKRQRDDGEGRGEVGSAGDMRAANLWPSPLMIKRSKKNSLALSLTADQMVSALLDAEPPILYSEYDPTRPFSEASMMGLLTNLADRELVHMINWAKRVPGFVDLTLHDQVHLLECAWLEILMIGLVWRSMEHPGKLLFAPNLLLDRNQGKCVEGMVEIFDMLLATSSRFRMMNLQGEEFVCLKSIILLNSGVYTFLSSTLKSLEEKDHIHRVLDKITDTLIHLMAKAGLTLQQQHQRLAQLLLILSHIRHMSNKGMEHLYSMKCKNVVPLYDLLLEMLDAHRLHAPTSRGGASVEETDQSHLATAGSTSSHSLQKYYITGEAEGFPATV
Muscarinic acetylcholine receptor M1 (Homo sapiens), sequence (P11229 whole entry, looked up): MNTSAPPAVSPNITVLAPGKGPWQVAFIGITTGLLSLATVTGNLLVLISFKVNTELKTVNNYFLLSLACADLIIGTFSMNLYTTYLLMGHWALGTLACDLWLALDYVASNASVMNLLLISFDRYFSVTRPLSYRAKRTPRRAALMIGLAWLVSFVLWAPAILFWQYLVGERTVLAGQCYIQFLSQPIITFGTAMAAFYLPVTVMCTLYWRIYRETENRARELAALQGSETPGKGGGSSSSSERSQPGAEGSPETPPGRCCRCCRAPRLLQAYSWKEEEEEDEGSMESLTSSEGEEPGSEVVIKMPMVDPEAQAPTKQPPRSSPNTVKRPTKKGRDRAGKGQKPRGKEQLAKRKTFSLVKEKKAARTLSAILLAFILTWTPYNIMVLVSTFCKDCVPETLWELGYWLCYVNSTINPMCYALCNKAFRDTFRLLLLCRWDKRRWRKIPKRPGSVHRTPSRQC
Glucocorticoid receptor (Homo sapiens), sequence (P04150 whole entry, looked up): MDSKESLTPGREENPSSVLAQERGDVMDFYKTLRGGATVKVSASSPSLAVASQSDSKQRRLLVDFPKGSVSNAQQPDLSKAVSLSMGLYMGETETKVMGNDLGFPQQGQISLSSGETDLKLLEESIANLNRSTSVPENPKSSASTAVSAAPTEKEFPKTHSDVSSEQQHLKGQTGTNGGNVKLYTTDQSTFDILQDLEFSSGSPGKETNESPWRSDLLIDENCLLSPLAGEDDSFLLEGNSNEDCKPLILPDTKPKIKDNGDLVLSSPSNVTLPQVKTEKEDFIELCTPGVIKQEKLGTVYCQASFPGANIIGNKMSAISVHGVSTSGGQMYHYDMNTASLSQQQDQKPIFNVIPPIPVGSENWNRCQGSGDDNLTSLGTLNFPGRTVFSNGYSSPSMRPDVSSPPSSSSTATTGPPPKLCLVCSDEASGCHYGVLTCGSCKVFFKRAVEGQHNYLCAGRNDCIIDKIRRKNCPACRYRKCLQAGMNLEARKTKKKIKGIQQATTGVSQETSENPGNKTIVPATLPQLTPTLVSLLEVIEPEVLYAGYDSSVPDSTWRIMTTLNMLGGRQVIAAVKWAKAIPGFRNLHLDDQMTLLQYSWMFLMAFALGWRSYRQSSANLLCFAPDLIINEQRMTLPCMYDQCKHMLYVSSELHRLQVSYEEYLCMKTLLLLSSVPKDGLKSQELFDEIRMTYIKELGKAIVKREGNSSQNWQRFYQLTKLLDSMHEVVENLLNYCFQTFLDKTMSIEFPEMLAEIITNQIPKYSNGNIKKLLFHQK
D(1A) dopamine receptor (Homo sapiens), sequence (P21728 whole entry, looked up): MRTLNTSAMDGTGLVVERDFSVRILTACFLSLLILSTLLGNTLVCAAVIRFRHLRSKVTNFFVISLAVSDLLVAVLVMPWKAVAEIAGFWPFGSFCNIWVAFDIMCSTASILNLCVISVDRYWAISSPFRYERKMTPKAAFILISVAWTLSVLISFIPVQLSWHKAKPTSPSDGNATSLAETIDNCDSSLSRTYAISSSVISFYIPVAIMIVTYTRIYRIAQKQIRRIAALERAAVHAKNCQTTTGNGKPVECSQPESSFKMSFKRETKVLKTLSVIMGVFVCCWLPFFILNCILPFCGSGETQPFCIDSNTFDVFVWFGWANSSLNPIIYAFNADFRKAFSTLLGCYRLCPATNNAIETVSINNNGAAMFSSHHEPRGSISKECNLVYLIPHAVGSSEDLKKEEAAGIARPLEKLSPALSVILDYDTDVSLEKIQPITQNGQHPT
Mu-type opioid receptor (Homo sapiens), sequence (P35372 whole entry, looked up): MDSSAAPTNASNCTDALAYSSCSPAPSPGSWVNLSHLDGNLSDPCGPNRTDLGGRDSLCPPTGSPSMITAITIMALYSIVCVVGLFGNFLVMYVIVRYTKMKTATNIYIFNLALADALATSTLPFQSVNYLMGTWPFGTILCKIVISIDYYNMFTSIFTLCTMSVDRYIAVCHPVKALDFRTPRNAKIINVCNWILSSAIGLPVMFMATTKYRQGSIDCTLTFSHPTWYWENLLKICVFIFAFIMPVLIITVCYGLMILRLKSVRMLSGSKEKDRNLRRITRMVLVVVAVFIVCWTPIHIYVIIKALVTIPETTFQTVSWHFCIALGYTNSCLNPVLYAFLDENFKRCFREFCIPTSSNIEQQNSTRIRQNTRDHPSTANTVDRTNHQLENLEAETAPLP

CCOC(=O)N1CCC(NCCNC(=O)c2ccccc2C)CC1
inhibition (Purinergic P2Y (rat)): -2% (inactive) | inhibition (Dopamine D4.2 (human)): 52% (inactive) | inhibition [1]: 48% (inactive) | inhibition [2]: -4% (inactive) | inhibition (Adrenergic a1A (rat)): 53% | inhibition (Glutamate Kainate (rat)): 9% (inactive) | inhibition [3]: 8% (inactive) | inhibition (Histamine H3 (human)): 11% (inactive) | inhibition (Adenosine A3 (human)): 7% (inactive) | inhibition (Histamine H1 (human)): -4% (inactive) | inhibition [4]: -2% (inactive) | inhibition [5]: -3% (inactive) | inhibition (Adenosine A1 (human)): -4% (inactive) | inhibition [6]: 19% (inactive) | inhibition [7]: -7% (inactive) | inhibition (Prostanoid EP4 (human)): 3% (inactive) | inhibition [8]: -14% (inactive) | inhibition (Sigma s1 (human)): 69% (inactive) | inhibition [9]: -5% (inactive) | inhibition [10]: -8% (inactive) | inhibition (Adrenergic a1B (rat)): 20% (inactive) | inhibition [11]: 9% (inactive) | inhibition (Adenosine A2 (human)): 7% (inactive) | inhibition [12]: 5% (inactive) | inhibition (GABA B1A (human)): -22% (inactive) | inhibition (Bradykinin B2 (human)): 9% (inactive) | inhibition [13]: 2% (inactive) | inhibition [14]: -1% (inactive) | inhibition (Histamine H2 (human)): 27% (inactive) | inhibition (Transporter, GABA (rat)): 3% (inactive) | inhibition [15]: 2% (inactive) | inhibition [16]: -8% (inactive) | inhibition (Melatonin MT1 (human)): 25% (inactive) | inhibition [17]: 5% (inactive) | inhibition (Adrenergic b1 (human)): 4% (inactive) | inhibition (Adrenergic a1D (human)): 28% (inactive)
